Where two headings read alike, the source gives them in different places.
Assays:
[1] = system: breast cancer cell lines (e.g. MDA-MB-231, SK-BR-3, MDA-MB-468, HCC1954); assay: Cell based assay, cell viability (CellTiter-Glo), breast cancer cell lines; settings: 72 hours, CellTiter-Glo
Method: (§1) Commercially available bladder cancer, prostate cancer, lung cancer, breast cancer, blood cancer, pancreatic cancer, colorectal cancer, brain cancer, neuroblastoma, melanoma, liver cancer, cervical carcinoma, ovarian cancer, renal cancer, and papilloma cell lines were each treated with trypsin-EDTA and cultured, followed by being seeded in each well of a 96 well plate. After 24 hours of treatment at constant temperature, the respective cells were treated with the candidate compound so that a final concentration became 0 to 2 μM. The treated cells were additionally cultured for 72 hours, and cell viability was measured by using an ATP detection method (CellTiter-Glo® Luminescent Cell Viability Assay, Promega).

[2] = system: cervical carcinoma cell lines; assay: Cell based assay, cell viability (CellTiter-Glo), cervical carcinoma cell lines; settings: Homo sapiens; HeLa cells
Method: as §1, with “After 24 hours of treatment at constant temperature, the respective cells were treated with the candidate compound so that a final concentration became 0 to 2 μM.” left out

renal cancer cell lines = assay: Cell based assay, cell viability (CellTiter-Glo), renal cancer cell lines; settings: Homo sapiens; ACHN cells
Method: as §1

[3] = Breast cancer cell line MDA-MB-231-L/DOX, read-out: IC50, MDA-MB-231-L/DOX
[4] = Homo sapiens, Breast cancer cell line BT-20, read-out: IC50, BT-20
[5] = Homo sapiens, Breast cancer cell line HCC1395, read-out: IC50, HCC1395
[6] = Homo sapiens, Breast cancer cell line HCC1954, read-out: IC50, HCC1954
[7] = Homo sapiens, Breast cancer cell line JIMT-1, read-out: IC50, JIMT-1
[8] = Homo sapiens, Breast cancer cell line MCF7, read-out: IC50, MCF7
[9] = Homo sapiens, Breast cancer cell line MDA-MB-231, read-out: IC50, MDA-MB-231
[10] = Homo sapiens, Breast cancer cell line MDA-MB-468, read-out: IC50, MDA-MB-468
[11] = Homo sapiens, Breast cancer cell line SK-BR-3, read-out: IC50, SK-BR-3

SMILES	IC50 [1, 3] [µM]	IC50 [1, 4] [µM]	IC50 [1, 5] [µM]	IC50 [1, 6] [µM]	IC50 [1, 7] [µM]	IC50 [1, 8] [µM]	IC50 [1, 9] [µM]	IC50 [1, 10] [µM]	IC50 [1, 11] [µM]	IC50 [2] [µM]	IC50 (renal cancer cell lines) [µM]
CC(=O)c1c([S+]([O-])Cc2cccc(C#N)c2)[nH]c2c(Br)ccc(Cl)c2c1=O (stereo not shown) [Compound 28, 3-(((3-acetyl-8-bromo-5-chloro-4-oxo-1,4-dihydroquinolin-2-yl)sulfinyl)methyl)benzonitrile]	> 2	> 2	> 10	> 2	> 10	> 2	1.41	> 2	0.66	> 10	> 2
CC(=O)c1c(SCc2ccc(F)c(Cl)c2)[nH]c2c(Br)ccc(Cl)c2c1=O [Compound 30, 3-acetyl-8-bromo-5-chloro-2-((3-chloro-4-fluorobenzyl)thio)quinolin-4(1H)-one]	> 2	> 2	> 10	> 2	> 10	> 2	> 2	> 2	> 2	> 10	> 2
CC(=O)c1c(SCc2ccc([N+](=O)[O-])cc2)[nH]c2c(Br)ccc(Cl)c2c1=O [Compound 32, 3-acetyl-8-bromo-5-chloro-2-((4-nitrobenzyl)thio)quinolin-4(1H)-one]	> 2	> 2	> 10	> 2	> 10	> 2	> 2	> 2	> 2	> 10	> 2
CSc1c(C(C)=O)c(=O)c2c(Cl)ccc(Br)c2n1S(C)(=O)=O [Compound 35, 3-acetyl-8-bromo-5-chloro-1-(methylsulfonyl)-2-(methylthio)quinolin-4(1H)-one]	> 2	> 2	> 10	> 2	> 10	> 2	> 2	> 2	> 2	> 10	> 2
CC(=O)c1c([S+](C)[O-])n(S(=O)(=O)C(F)(F)F)c2c(Br)ccc(Cl)c2c1=O (stereo not shown) [Compound 36, 3-acetyl-8-bromo-5-chloro-2-(methylsulfinyl)-1-((trifluoromethyl)sulfonyl)quinolin-4(1H)-one]	> 2	> 2	> 10	> 2	> 10	> 2	> 2	> 2	> 2	> 10	> 2
CSc1c(C(C)=O)c(=O)c2c(Cl)ccc(Br)c2n1S(=O)(=O)c1ccc(Cl)cc1 [Compound 37, 3-acetyl-8-bromo-5-chloro-1-((4-chlorophenyl)sulfonyl)-2-(methylthio)quinolin-4(1H)-one]	> 2	> 2	> 10	> 2	> 10	> 2	> 2	> 2	> 2	> 10	> 2
CSc1c(C(C)=O)c(=O)c2c(Cl)ccc(Br)c2n1S(=O)(=O)c1ccc([N+](=O)[O-])cc1 [Compound 38, 3-acetyl-8-bromo-5-chloro-2-(methylthio)-1-((4-nitrophenyl)sulfonyl)quinolin-4(1H)-one]	> 2	> 2	> 10	> 2	> 10	> 2	> 2	> 2	> 2	> 10	> 2
CCS(=O)(=O)n1c([S+](C)[O-])c(C(C)=O)c(=O)c2c(Cl)ccc(Br)c21 (stereo not shown) [Compound 39, 3-acetyl-8-bromo-5-chloro-1-(ethylsulfonyl)-2-(methylsulfinyl)quinolin-4(1H)-one]	> 2	> 2	> 10	> 2	> 10	> 2	> 2	> 2	> 2	> 10	> 2
CSc1c(C(C)=O)c(=O)c2c(Cl)ccc(Br)c2n1S(=O)(=O)c1ccc(C(C)(C)C)cc1 [Compound 40, 3-acetyl-8-bromo-1-((4-(tert-butyl)phenyl)sulfonyl)-5-chloro-2-(methylthio)quinolin-4(1H)-one]	> 2	> 2	> 10	> 2	> 10	> 2	> 2	> 2	> 2	> 10	> 2
CC(=O)c1c(S(C)(=O)=O)n(S(=O)(=O)c2ccc(C(C)(C)C)cc2)c2c(Br)ccc(Cl)c2c1=O [Compound 41, 3-acetyl-8-bromo-1-((4-(tert-butyl)phenyl)sulfonyl)-5-chloro-2-(methylsulfonyl)quinolin-4(1H)-one]	> 2	> 2	> 10	> 2	> 10	> 2	> 2	> 2	> 2	> 10	> 2
CC(=O)c1c([S+](C)[O-])n(S(=O)(=O)c2ccc(C(C)(C)C)cc2)c2c(Br)ccc(Cl)c2c1=O (stereo not shown) [Compound 42, 3-acetyl-8-bromo-1-((4-(tert-butyl)phenyl)sulfonyl)-5-chloro-2-(methylsulfinyl)quinolin-4(1H)-one]	> 2	> 2	> 10	> 2	> 10	> 2	> 2	> 2	1.57	> 10	> 2
CC(=O)c1c(SCc2cc(Cl)ccc2Cl)[nH]c2c(Br)ccc(Cl)c2c1=O [Compound 43, 3-acetyl-8-bromo-5-chloro-2-((2,5-dichlorobenzyl)thio)quinolin-4(1H)-one]	> 2	> 2	> 10	> 2	> 10	> 2	> 2	> 2	> 2	> 10	> 2

Second part, the compound after the results:

IC50 [1, 3] [µM]	IC50 [1, 4] [µM]	IC50 [1, 5] [µM]	IC50 [1, 6] [µM]	IC50 [1, 7] [µM]	IC50 [1, 8] [µM]	IC50 [1, 9] [µM]	IC50 [1, 10] [µM]	IC50 [1, 11] [µM]	IC50 [2] [µM]	IC50 (renal cancer cell lines) [µM]	SMILES
> 2	> 2	> 10	> 2	> 10	> 2	> 2	> 2	> 2	> 10	> 2	CC(=O)c1c([S+]([O-])Cc2ccccc2)n(C(=O)c2ccc(Br)cc2)c2c(Br)ccc(Cl)c2c1=O (stereo not shown) [Compound 20, 3-acetyl-2-(benzylsulfinyl)-8-bromo-1-(4-bromobenzoyl)-5-chloroquinolin-4(1H)-one]
> 2	> 2	> 10	> 2	> 10	> 2	> 2	> 2	> 2	> 10	> 2	CC(=O)c1c(S(C)(=O)=O)n(C(=O)c2ccc(Br)cc2)c2c(Br)ccc(Cl)c2c1=O [Compound 21, 3-acetyl-8-bromo-1-(4-bromobenzoyl)-5-chloro-2-(methylsulfonyl)quinolin-4(1H)-one]
> 2	> 2	> 10	> 2	> 10	> 2	> 2	> 2	> 2	> 10	> 2	CC(=O)c1c([S+](C)[O-])n(Cc2ccc(F)c(Cl)c2)c2c(Br)ccc(Cl)c2c1=O (stereo not shown) [Compound 22, 3-acetyl-8-bromo-5-chloro-1-(3-chloro-4-fluorobenzyl)-2-(methylsulfinyl)quinolin-4(1H)-one]
> 2	> 2	> 10	> 2	> 10	> 2	> 2	> 2	> 2	> 10	> 2	CC(=O)c1c(SCc2ccccc2)n(C(=O)c2ccc(Br)cc2)c2c(Br)ccc(Cl)c2c1=O [Compound 23, 3-acetyl-2-(benzylthio)-8-bromo-1-(4-bromobenzoyl)-5-chloroquinolin-4(1H)-one]
> 2	> 2	> 10	> 2	> 10	> 2	> 2	> 2	> 2	> 10	> 2	CC(=O)c1c(SC(C)C)[nH]c2c(Br)ccc(Cl)c2c1=O [Compound 24, 3-acetyl-8-bromo-5-chloro-2-(isopropylthio)quinolin-4(1H)-one]
> 2	> 2	> 10	> 2	> 10	> 2	> 2	> 2	1.72	> 10	> 2	CC(=O)c1c([S+]([O-])C(C)C)[nH]c2c(Br)ccc(Cl)c2c1=O (stereo not shown) [Compound 25, 3-acetyl-8-bromo-5-chloro-2-(isopropylsulfinyl)quinolin-4(1H)-one]
> 2	> 2	> 10	> 2	> 10	> 2	> 2	> 2	> 2	> 10	> 2	CC(=O)c1c([S+]([O-])C(C)c2ccccc2)[nH]c2c(Br)ccc(Cl)c2c1=O (stereo not shown) [Compound 26, 3-acetyl-8-bromo-5-chloro-2-((1-phenylethyl)sulfinyl)quinolin-4(1H)-one]
> 2	> 2	> 10	> 2	> 10	> 2	> 2	> 2	> 2	> 10	> 2	CC(=O)c1c(SCc2cccc(C#N)c2)[nH]c2c(Br)ccc(Cl)c2c1=O [Compound 27, 3-(((3-acetyl-8-bromo-5-chloro-4-oxo-1,4-dihydroquinolin-2-yl)thio)methyl)benzonitrile]

Reference: patent publication US11464770B2, “Anticancer pharmaceutical composition” (NATIONAL CANCER CENTER, priority 2016, dated 2022)
